The test deals with T1, STAT6 (Homo sapiens, UniProt P42226).
T1 construct: These cells express endogenous STAT6; host or cells: HeLa LgBiT clone 4.14
T1 sequence (P42226 1-847): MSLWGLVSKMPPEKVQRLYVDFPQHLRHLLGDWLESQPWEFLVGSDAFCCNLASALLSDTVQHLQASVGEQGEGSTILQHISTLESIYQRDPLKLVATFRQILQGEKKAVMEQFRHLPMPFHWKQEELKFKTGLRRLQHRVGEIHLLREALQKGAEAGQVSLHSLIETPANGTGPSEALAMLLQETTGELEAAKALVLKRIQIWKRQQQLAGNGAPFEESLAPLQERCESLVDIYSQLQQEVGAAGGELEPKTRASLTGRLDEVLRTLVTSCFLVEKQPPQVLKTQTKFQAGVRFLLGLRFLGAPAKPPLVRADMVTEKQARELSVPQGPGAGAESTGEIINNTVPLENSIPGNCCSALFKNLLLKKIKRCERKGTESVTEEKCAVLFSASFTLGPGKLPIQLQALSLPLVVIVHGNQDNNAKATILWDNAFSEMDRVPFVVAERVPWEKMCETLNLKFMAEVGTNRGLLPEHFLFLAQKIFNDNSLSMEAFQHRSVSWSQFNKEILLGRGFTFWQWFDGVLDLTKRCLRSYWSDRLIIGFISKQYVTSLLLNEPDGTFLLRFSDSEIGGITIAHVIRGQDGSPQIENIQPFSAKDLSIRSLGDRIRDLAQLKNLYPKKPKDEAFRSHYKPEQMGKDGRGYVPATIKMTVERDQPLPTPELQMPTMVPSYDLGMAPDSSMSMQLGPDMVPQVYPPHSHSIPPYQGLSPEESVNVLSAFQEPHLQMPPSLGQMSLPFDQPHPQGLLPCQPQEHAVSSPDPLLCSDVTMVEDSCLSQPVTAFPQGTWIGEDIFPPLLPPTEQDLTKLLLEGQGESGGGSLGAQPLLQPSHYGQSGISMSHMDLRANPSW
Kind of test: Stat6 Degrader Assay (HiBiT based, HeLa LgBiT clone 4.14). The note with it: HeLa LgBiT clone 4.14 HiBiT-STAT6, 4-24 h incubation; values given for compounds with >80% Emax; geometric mean; read-out: STAT6 degradation DC50. It is filed as cell-based. Here is the method:
This was a HiBit based assay. A HeLa cell line stably transfected with a small protein, LgBit (Large Bit) was obtained from Promega. These cells express endogenous STAT6. A small 11 amino acid gene sequence (HiBiT) was inserted in the STAT6 gene using CRISPR technology. Once STAT6 protein is expressed in the cells, the HiBiT sequence will bind the LgBit in the cells resulting in a functional NanoBiT protein, giving a luminescent tag to STAT6, see FIG. 2.
Single cell clones were prepared and the clone 4.14 was selected for the assay based on that clone showing high luminescence, high STAT6 phosphorylation upon stimulation with IL-4, and inhibition of luminescence when cells were treated with STAT6 siRNA.
HeLa LgBiT clone 4.14 cells were suspended in DMEM with 10% FCS, 1% Pen/Strep, Na-pyrovate and Hygromycin B, at a concentration of 1.25*105 cells pr mL. 5000 cells were added pr well of a 384 well plate and 20 nL of compound was added by Echo® liquid handler. NN6394A (terfenadine, a toxic compound) was added to control wells at 50 μM concentration to establish the assay window. In these wells the cells are dead which equals 100% degradation of STAT6.
After 4-24 h of incubation at 37° C. under 5% CO2/95% air, 5 μL substrate (Nano-GLO®) was added to the wells and the plates were centrifuged and incubated for 0.5 h.
The luminescence in the wells as a measure of non-degraded STAT6 was measured in a plate reader (BMG Pherastar FSX).
The dose-response curves for Examples 3u208, 3u246, 3u118, 3u119, 3u120, and 3u74 are shown in FIG. 1 (where percent degradation is plotted vs. test compound concentration in M on a log-scale).
On to `CNc1ccn(-c2ccnc3c2cc([C@H](C)N2CC=C(c4c(C)cc(C(=O)N5CCC(CN6CCN(Cc7cc8c(cc7F)n([C@@H]7CCC(=O)NC7=O)c(=O)n8C7CC7)C[C@@H]6C)CC5)cc4F)CC2)n3C)c(=O)c1` (single isomer, unassigned) [Example 3u168], for which the DC50 turned out to be 2.1 nM. For `CNc1cc(=O)n(-c2ccnc3c2cc([C@H](C)N2CC=C(c4c(C)cc(C(=O)N(C)c5ccc(C6CCN(Cc7ccc8c(c7)C(C)(C)C(=O)N8[C@H]7CCC(=O)NC7=O)CC6)cc5)cc4F)CC2)n3C)cc1F` (single isomer, unassigned) [Example 3u234] the value was 0.1 nM.

Take `CNc1c(F)cn(-c2ccnc3c2cc([C@H](C)N2CC=C(c4c(C)cc(C(=O)N5CCC(CN6CCN(Cc7ccc8c(c7)C7(CC7)C(=O)N8C7CCC(=O)NC7=O)C[C@@H]6C)CC5)cc4F)CC2)n3C)c(=O)c1F` (stereo partly drawn) [Example 3u4, 3-(5′-(((S)-4-((1-(4-(1-((S)-1-(4-(3,5-difluoro-4-(methylamino)-2-oxopyridin-1 (2H)-yl)-1-methyl-1H-pyrrolo[2,3-b]pyridin-2-yl)ethyl)-1,2,3,6-tetrahydropyridin-4-yl)-3-fluoro-5-methyl-benzoyl)-piperidin-4-yl)methyl)-3-methylpiperazin-1-yl)methyl)-2′-oxospiro[cyclopropane-1,3′-indolin]-1′-yl)piperidine-2,6-dione]: the DC50 came out at 4 nM. `CNc1ccn(-c2ccnc3c2cc([C@H](C)N2CC=C(c4c(C)cc(C(=O)N5CCC(CN6CCN(Cc7cc8c(cc7F)n(C7CCC(=O)NC7=O)c(=O)n8C)CC6)CC5)cc4F)CC2)n3C)c(=O)c1` (stereo partly drawn) [Example 3u10, 3-(6-fluoro-5-((4-((1-(3-fluoro-5-methyl-4-(1-((S)-1-(1-methyl-4-(4-(methylamino)-2-oxopyridin-1 (2H)-yl)-1H-pyrrolo[2,3-b]pyridin-2-yl)ethyl)-1,2,3,6-tetrahydropyridin-4-yl)benzoyl)-piperidin-4-yl)methyl)piperazin-1-yl)methyl)-3-methyl-2-oxo-2,3-dihydro-1H-benzo[d]imidazol-1-yl)piperidine-2,6-dione]: the DC50 is 0.6 nM. As for `CNc1cc(=O)n(-c2ccnc3c2cc([C@H](C)N2CC=C(c4c(C)cc(C(=O)N5CCC(F)(CC6CCN(c7ccc8c(c7)C7(CC7)C(=O)N8C7CCC(=O)NC7=O)CC6)CC5)cc4F)CC2)n3C)cc1F` (stereo partly drawn) [Example 3u21, 3-(5′-(4-((4-fluoro-1-(3-fluoro-4-(1-((S)-1-(4-(5-fluoro-4-(methylamino)-2-oxopyridin-1 (2H)-yl)-1-methyl-1H-pyrrolo[2,3-b]pyridin-2-yl)ethyl)-1,2,3,6-tetrahydropyridin-4-yl)-5-methylbenzoyl)piperidin-4-yl)methyl)piperidin-1-yl)-2′-oxospiro[cyclopropane-1,3′-indolin]-1′-yl)-piperidine-2,6-dione], the DC50 was determined as 0.4 nM. For `Cc1cc(C(=O)N2CCC(CN3CCN(Cc4ccc5c(c4)n(C)c(=O)n5C4CCC(=O)NC4=O)C[C@@H]3C)CC2)cc(F)c1C1=CCN(Cc2cc3c(-n4ccc5c(c4=O)CCN5)ccnc3n2C)CC1` (stereo partly drawn) [Example 3u23, 3-(5-(((S)-4-((1-(3-fluoro-5-methyl-4-(1-((1-methyl-4-(4-oxo-1,2,3,4-tetrahydro-5H-pyrrolo[3,2-c]pyridin-5-yl)-1H-pyrrolo[2,3-b]pyridin-2-yl)methyl)-1,2,3,6-tetrahydropyridin-4-yl)benzoyl)piperidin-4-yl)methyl)-3-methylpiperazin-1-yl)methyl)-3-methyl-2-oxo-2,3-dihydro-1H-benzo[d]imidazol-1-yl)piperidine-2,6-dione] the value was 1.3 nM. For `CNc1cc(=O)n(-c2ccnc3c2cc([C@H](C)N2CC=C(c4c(C)cc(C(=O)N5CCC(CC6(O)CCN(c7ccc8c(c7)C7(CC7)C(=O)N8C7CCC(=O)NC7=O)CC6)CC5)cc4F)CC2)n3C)cc1F` (stereo partly drawn) [Example 3u70, 3-(5′-(4-((1-(3-fluoro-4-(1-((S)-1-(4-(5-fluoro-4-(methylamino)-2-oxopyridin-1 (2H)-yl)-1-methyl-1H-pyrrolo[2,3-b]pyridin-2-yl)ethyl)-1,2,3,6-tetrahydropyridin-4-yl)-5-methylbenzoyl)-piperidin-4-yl)methyl)-4-hydroxypiperidin-1-yl)-2′-oxospiro[cyclopropane-1,3′-indolin]-1′-yl)-piperidine-2,6-dione] the value was 5.8 nM; for `CNc1ccn(-c2ccnc3c2cc(CN2CCC(c4c(F)cc(C(=O)N5CCC(CN6CCN(Cc7ccc8c(c7)C7(CC7)C(=O)N8C7CCC(=O)NC7=O)C[C@@H]6C)CC5)cc4F)CC2)n3C)c(=O)c1F` (stereo partly drawn) [Example 3u84, 3-(5′-(((S)-4-((1-(3,5-difluoro-4-(1-((4-(3-fluoro-4-(methylamino)-2-oxopyridin-1 (2H)-yl)-1-methyl-1H-pyrrolo[2,3-b]pyridin-2-yl)methyl)piperidin-4-yl)benzoyl)piperidin-4-yl)methyl)-3-methylpiperazin-1-yl)methyl)-2′-oxospiro[cyclopropane-1,3′-indolin]-1′-yl)piperidine-2,6-dione], 26 nM. For `CNc1ccn(-c2ccnc3c2cc([C@H](C)N2CC=C(c4c(C)cc(C(=O)N5CCC(CN6CCN(Cc7cc8c(cc7F)n(C7CCC(=O)NC7=O)c(=O)n8C7CC7)CC6)CC5)cc4F)CC2)n3C)c(=O)c1` (stereo partly drawn) [Example 3u103, 3-(3-cyclopropyl-6-fluoro-5-((4-((1-(3-fluoro-5-methyl-4-(1-((S)-1-(1-methyl-4-(4-(methylamino)-2-oxopyridin-1 (2H)-yl)-1H-pyrrolo[2,3-b]pyridin-2-yl)ethyl)-1,2,3,6-tetrahydropyridin-4-yl)benzoyl)piperidin-4-yl)methyl)piperazin-1-yl)methyl)-2-oxo-2,3-dihydro-1H-benzo[d]imidazol-1-yl)piperidine-2,6-dione] the value was 2.5 nM; for `CNc1ccn(-c2ccnc3c2cc([C@H](C)N2CC=C(c4c(C)cc(C(=O)N5CCC(CN6CCN(Cc7ccc8c(c7)C7(CCCC7)C(=O)N8C7CCC(=O)NC7=O)CC6)CC5)cc4F)CC2)n3C)c(=O)c1` (stereo partly drawn) [Example 3u110, 3-(5′-((4-((1-(3-fluoro-5-methyl-4-(1-((S)-1-(1-methyl-4-(4-(methylamino)-2-oxopyridin-1 (2H)-yl)-1H-pyrrolo[2,3-b]pyridin-2-yl)ethyl)-1,2,3,6-tetrahydropyridin-4-yl)benzoyl)piperidin-4-yl)methyl)piperazin-1-yl)methyl)-2′-oxospiro[cyclopentane-1,3′-indolin]-1′-yl)piperidine-2,6-dione], 2.5 nM; for `CNc1ccn(-c2ccnc3c2cc([C@H](C)N2CC=C(c4c(C)cc(C(=O)N5CCC(CN6CCN(Cc7ccc8c(c7)C7(CC7)C(=O)N8C7CCC(=O)NC7=O)C[C@@H]6C)CC5)cc4F)CC2)n3C)c(=O)c1F` (stereo partly drawn) [Example 3u114, 3-(5′-(((S)-4-((1-(3-fluoro-4-(1-((S)-1-(4-(3-fluoro-4-(methylamino)-2-oxopyridin-1 (2H)-yl)-1-methyl-1H-pyrrolo[2,3-b]pyridin-2-yl)ethyl)-1,2,3,6-tetrahydropyridin-4-yl)-5-methyl-benzoyl)piperidin-4-yl)methyl)-3-methylpiperazin-1-yl)methyl)-2′-oxospiro[cyclopropane-1,3′-indolin]-1′-yl)piperidine-2,6-dione], 9.9 nM.

For orientation: DC50 means the concentration giving 50% degradation.

The record behind these values is US20250320206A1, “STAT6 DEGRADERS” (Gilead Sciences, Inc., priority 2024, published 2025).
